{"source": "paper PMC12446779", "about": "“Structural basis of transglucosylation in dextran dextrinase, a homolog of anomer-inverting GH15 glucoside hydrolases” (The Journal of Biological Chemistry, 2025)", "key": {"Δ382C (DDase-Δ382C) [1]": {"target": "T1, Δ382C (DDase-Δ382C) (Gluconobacter oxydans, UniProt A0A0M5MSC0, E858S)", "T1 construct": "gene HKD20_12845; C-terminal truncation Met1-Ser902 (domains N1, N2, HLH, A); N-terminal His6 tag (MNHKVHHHHHHIEGRHMEL) kept; E. coli BL21-CodonPlus(DE3)-RIL; 921 residues with tag; dimer 195,604 Da", "T1 sequence (A0A0M5MSC0 entry or part of it E858S)": "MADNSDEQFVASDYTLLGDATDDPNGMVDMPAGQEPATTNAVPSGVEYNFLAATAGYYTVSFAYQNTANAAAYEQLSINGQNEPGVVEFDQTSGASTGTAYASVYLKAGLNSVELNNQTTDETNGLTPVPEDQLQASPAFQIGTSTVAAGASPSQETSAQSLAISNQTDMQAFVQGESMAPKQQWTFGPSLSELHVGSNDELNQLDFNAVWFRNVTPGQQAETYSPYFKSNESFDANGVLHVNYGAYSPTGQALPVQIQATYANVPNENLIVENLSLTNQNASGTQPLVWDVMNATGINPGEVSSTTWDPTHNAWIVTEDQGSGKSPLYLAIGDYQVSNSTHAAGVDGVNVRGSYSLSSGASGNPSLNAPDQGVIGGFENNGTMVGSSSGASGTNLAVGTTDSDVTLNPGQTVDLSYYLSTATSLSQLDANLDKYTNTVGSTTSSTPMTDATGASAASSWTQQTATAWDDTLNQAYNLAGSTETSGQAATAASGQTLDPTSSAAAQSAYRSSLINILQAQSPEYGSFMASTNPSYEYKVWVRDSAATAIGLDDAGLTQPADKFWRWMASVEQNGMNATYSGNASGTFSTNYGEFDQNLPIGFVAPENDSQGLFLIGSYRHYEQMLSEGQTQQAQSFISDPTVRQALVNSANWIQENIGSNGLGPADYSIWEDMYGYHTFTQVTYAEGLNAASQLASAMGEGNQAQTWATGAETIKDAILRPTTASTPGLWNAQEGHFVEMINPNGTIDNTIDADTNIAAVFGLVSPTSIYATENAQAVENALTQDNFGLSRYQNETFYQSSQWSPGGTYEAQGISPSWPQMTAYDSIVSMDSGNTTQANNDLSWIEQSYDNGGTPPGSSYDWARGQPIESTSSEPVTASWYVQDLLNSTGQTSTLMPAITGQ", "test": "glycosynthase reaction, isomaltotetraose formation by HPAEC-PAD", "type": "biochemical", "details": "12.5 mM donor, 50 mM isomaltotriose acceptor, 130 mM sodium acetate pH 4.2, 35 °C"}, "Δ382C (DDase-Δ382C) [2]": {"target": "T2, Δ382C (DDase-Δ382C) (Gluconobacter oxydans, UniProt A0A0M5MSC0, E858A)", "T2 construct": "gene HKD20_12845; C-terminal truncation Met1-Ser902 (domains N1, N2, HLH, A); N-terminal His6 tag (MNHKVHHHHHHIEGRHMEL) kept; E. coli BL21-CodonPlus(DE3)-RIL; 921 residues with tag; dimer 195,604 Da", "T2 sequence (A0A0M5MSC0 entry or part of it E858A)": "as the sequence (A0A0M5MSC0 entry or part of it E858S) above, with S858A counted along it", "test": "glycosynthase reaction, isomaltotetraose formation by HPAEC-PAD", "type": "biochemical", "details": "12.5 mM donor, 50 mM isomaltotriose acceptor, 130 mM sodium acetate pH 4.2, 35 °C"}}, "data": [{"smiles": "OC[C@H]1O[C@@H](F)[C@H](O)[C@@H](O)[C@@H]1O", "note": "[β-GF, β-D-glucosyl fluoride]", "values": [{"measurement": "glycosynthase reaction, isomaltotetraose formation by HPAEC-PAD", "setting": "Δ382C (DDase-Δ382C) [1]", "result": "isomaltotetraose (IG4) was produced from β-D-glucosyl fluoride (β-GF) and IG3 by E858A and E858S"}, {"measurement": "glycosynthase reaction, isomaltotetraose formation by HPAEC-PAD", "setting": "Δ382C (DDase-Δ382C) [2]", "result": "isomaltotetraose (IG4) was produced from β-D-glucosyl fluoride (β-GF) and IG3 by E858A and E858S"}]}]}
